From the supplement of paper PMC10307832

Key:
Assay in all cases: relative viability (nuclei count vs DMSO), 5 days (fraction); higher = more cells survive
[1] = compound: CCN(CC)CCNC(=O)c1c(C)[nH]c(/C=C2\C(=O)Nc3ccc(F)cc32)c1C [Sunitinib] + C[C@@H](Oc1cc(-c2cnn(C3CCNCC3)c2)cnc1N)c1c(Cl)ccc(F)c1Cl [Crizotinib] (partner 1 µM)
How it was run: (§1)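 For relative viability, nuclei counts in treated wells were divided by those in vehicle wells. Lung cancer cell lines had been pin-tool dosed in 1536-well plates the day after seeding and cultured for 5 days, then fixed and stained in one step (final 0.05% Triton X-100, 1% formaldehyde, 1 ug/ml Hoechst) and imaged at 4×. Doses were one drug alone or a fixed anchor-drug dose plus five library-drug doses (not always all listed) in √10 steps, and values are duplicate-plate medians.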

[2] = compound: CCN(CC)CCNC(=O)c1c(C)[nH]c(/C=C2\C(=O)Nc3ccc(F)cc32)c1C [Sunitinib] + Cc1nc(Nc2ncc(C(=O)Nc3c(C)cccc3Cl)s2)cc(N2CCN(CCO)CC2)n1 [Dasatinib] (partner 0.075 µM)
How it was run: as §1

[3] = compound: CCN(CC)CCNC(=O)c1c(C)[nH]c(/C=C2\C(=O)Nc3ccc(F)cc32)c1C [Sunitinib] + CS(=O)(=O)N1CCN(Cc2cc3nc(-c4cccc5[nH]ncc45)nc(N4CCOCC4)c3s2)CC1 [Pictilisib] (partner 1 µM)
How it was run: as §1

[4] = compound: CCN(CC)CCNC(=O)c1c(C)[nH]c(/C=C2\C(=O)Nc3ccc(F)cc32)c1C [Sunitinib] + O=C(CCCCCCC(=O)Nc1ccccc1)NO [Vorinostat] (partner 1 µM)
How it was run: as §1

Cell Line	relative viability ([1]; first compound 0.02 µM)	relative viability ([1]; first compound 0.06325 µM)	relative viability ([1]; first compound 0.2 µM)	relative viability ([1]; first compound 0.6325 µM)	relative viability ([1]; first compound 2 µM)	relative viability ([2]; first compound 0.02 µM)	relative viability ([2]; first compound 0.06325 µM)	relative viability ([2]; first compound 0.2 µM)	relative viability ([2]; first compound 0.6325 µM)	relative viability ([2]; first compound 2 µM)	relative viability ([3]; first compound 0.02 µM)	relative viability ([3]; first compound 0.06325 µM)	relative viability ([3]; first compound 0.2 µM)	relative viability ([3]; first compound 0.6325 µM)	relative viability ([3]; first compound 2 µM)	relative viability ([4]; first compound 0.02 µM)	relative viability ([4]; first compound 0.06325 µM)	relative viability ([4]; first compound 0.2 µM)	relative viability ([4]; first compound 0.6325 µM)	relative viability ([4]; first compound 2 µM)
LCLC-103H	1.01	1.09	1.17	1.05	1.06	0.428	0.527	0.501	0.462	0.589	0.558	0.649	0.643	0.614	0.536	0.778	0.918	0.868	0.827	0.867
LK-2	0.203	0.265	0.203	0.23	0.231	0.223	0.27	0.324	0.339	0.297	0.505	0.543	0.558	0.573	0.465	0.259	0.391	0.311	0.253	0.413
LOU-NH91	0.733	0.732	0.789	0.71	0.746	0.576	0.564	0.615	0.648	0.644	0.525	0.537	0.533	0.556	0.53	0.928	0.96	0.997	1	0.884
LU99A	0.517	0.524	0.605	0.764	0.674	0.489	0.5	0.612	0.57	0.49	0.308	0.352	0.282	0.317	0.313	0.468	0.625	0.514	0.516	0.44
LXF-289	0.771	0.811	0.913	0.8	–	0.248	0.25	0.237	0.204	0.271	0.743	0.874	0.868	0.786	0.881	0.688	0.857	0.824	0.779	0.752
NCI-H23	0.478	0.477	0.854	0.548	0.527	0.658	0.787	0.959	0.955	0.794	0.498	0.594	0.483	0.468	0.504	0.625	0.841	0.686	0.665	0.674
NCI-H322M	0.845	0.891	0.951	0.891	1.08	0.257	0.264	0.293	0.265	0.253	0.497	0.553	0.582	0.511	0.474	0.9	0.807	0.931	0.847	0.702
NCI-H358	0.722	0.652	0.562	0.642	0.508	0.151	0.187	0.182	0.19	0.174	0.369	0.38	0.34	0.359	0.261	0.588	0.684	0.79	0.77	0.419
NCI-H441	0.686	0.802	0.831	0.858	–	0.545	0.684	0.714	0.763	0.658	0.431	0.546	0.48	0.476	0.428	0.67	0.833	–	0.984	0.85
NCI-H460	0.874	0.945	1.2	1.17	0.638	0.471	0.631	0.676	0.602	0.444	0.323	0.19	0.441	0.366	0.304	0.667	0.848	1.01	0.91	0.836
NCI-H520	0.83	0.699	0.856	0.63	0.601	0.226	0.186	0.18	0.224	0.217	0.244	0.32	0.348	0.278	0.273	0.694	0.793	0.569	0.674	0.578
NCI-H596	0.935	0.957	1.01	–	0.81	0.599	0.731	0.709	0.709	0.467	0.376	0.392	0.428	0.394	0.434	0.734	0.541	0.594	0.637	0.564
NCI-H647	0.988	0.998	1.19	1.15	0.941	0.164	0.291	0.228	0.183	0.161	0.302	0.381	–	0.373	0.454	0.469	0.572	0.795	0.648	0.643
NCI-H650	0.687	0.656	0.738	0.717	0.78	0.491	0.523	0.41	0.533	0.476	0.828	1.09	0.932	0.858	0.843	0.382	0.439	0.423	0.55	0.395
NCI-H661	1.09	0.987	1	0.978	1.17	0.923	1.12	1.06	1.07	1.1	0.385	0.362	0.368	0.319	0.441	0.751	0.78	0.826	0.817	0.839
NCI-H727	0.724	0.832	0.808	0.926	0.738	0.343	0.432	0.472	0.404	0.275	0.278	0.417	0.542	0.325	0.344	1.12	1.22	1.18	1.18	1.25
NCI-H838	0.768	0.863	0.916	0.884	0.64	0.324	0.293	0.322	0.291	0.285	0.409	0.499	0.506	0.487	0.361	0.715	0.803	0.758	0.725	0.65

Cell Line	relative viability ([1]; first compound 0.02 µM)	relative viability ([1]; first compound 0.06325 µM)	relative viability ([1]; first compound 0.2 µM)	relative viability ([1]; first compound 0.6325 µM)	relative viability ([1]; first compound 2 µM)	relative viability ([2]; first compound 0.02 µM)	relative viability ([2]; first compound 0.06325 µM)	relative viability ([2]; first compound 0.2 µM)	relative viability ([2]; first compound 0.6325 µM)	relative viability ([2]; first compound 2 µM)	relative viability ([3]; first compound 0.02 µM)	relative viability ([3]; first compound 0.06325 µM)	relative viability ([3]; first compound 0.2 µM)	relative viability ([3]; first compound 0.6325 µM)	relative viability ([3]; first compound 2 µM)	relative viability ([4]; first compound 0.02 µM)	relative viability ([4]; first compound 0.06325 µM)	relative viability ([4]; first compound 0.2 µM)	relative viability ([4]; first compound 0.6325 µM)	relative viability ([4]; first compound 2 µM)
NCI-H1355	0.982	1.08	1.25	1.1	1.12	0.715	0.804	0.943	0.756	0.674	0.431	0.448	0.477	0.399	0.447	0.638	0.75	0.793	0.751	0.678
NCI-H1437	0.979	0.959	1.09	0.909	0.899	0.489	0.418	0.478	0.39	0.412	0.376	0.559	0.427	0.456	0.434	0.804	0.839	0.876	0.887	–
NCI-H1650	0.821	0.903	1.14	0.991	0.829	0.321	0.337	0.309	0.358	0.268	0.535	0.559	0.545	0.681	0.536	0.558	0.606	0.752	0.659	0.582
NCI-H1651	0.866	0.843	0.89	0.921	0.917	0.389	0.506	0.59	0.462	0.527	0.462	0.729	0.616	0.614	0.593	0.514	0.736	0.591	0.5	0.514
NCI-H1666	1.06	0.978	1.08	1.19	1.07	0.77	0.948	0.936	0.862	0.942	0.459	0.517	0.603	0.55	0.429	1.12	1.06	1.11	0.996	–
NCI-H1734	0.645	0.738	0.866	0.746	0.724	0.456	0.43	0.503	0.451	0.46	0.433	0.518	0.522	0.452	0.423	0.694	0.91	1.05	0.782	0.782
NCI-H1755	0.753	0.874	0.89	0.904	0.857	0.41	0.46	0.441	0.424	0.448	0.371	0.481	0.472	0.454	0.451	0.735	0.878	0.897	0.758	0.842
NCI-H1915	–	0.911	0.998	0.911	0.966	0.302	0.346	0.322	0.34	0.296	0.958	1.01	1.02	0.977	1.02	0.483	0.538	0.562	0.5	0.505
NCI-H1944	–	1.06	1.34	1.24	1.18	0.205	0.246	0.211	0.239	0.211	0.315	0.379	0.412	0.337	0.374	0.547	0.736	0.659	0.625	0.559
NCI-H1975	0.885	0.96	1.05	0.954	–	0.36	0.403	0.399	0.423	0.344	0.285	0.345	0.319	0.33	0.237	0.693	0.714	0.77	0.733	0.666
NCI-H1993	0.846	0.741	0.872	0.966	0.74	0.735	0.545	0.779	0.654	0.645	0.777	0.913	0.808	0.832	0.92	0.857	0.727	0.911	0.747	0.9
NCI-H2009	1.01	1.03	1.16	1.13	1.04	0.291	0.379	0.288	0.393	0.309	0.748	0.791	0.842	0.876	0.758	0.725	0.765	0.828	0.746	0.723
NCI-H2023	0.628	0.67	0.792	0.654	0.667	0.459	0.582	0.628	0.707	0.642	0.205	0.265	0.26	0.269	0.23	0.575	0.585	0.906	0.812	0.488
NCI-H2085	0.844	0.817	1.03	0.85	0.798	0.271	0.269	0.222	0.256	0.26	0.431	0.476	0.519	0.519	0.555	0.784	0.827	0.84	0.813	0.807
NCI-H2087	0.909	1.09	1.15	0.967	0.791	0.717	1.25	1	0.945	0.669	0.957	0.831	1.04	0.879	0.799	0.748	0.664	0.667	0.715	0.712
NCI-H2126	1.01	1.04	1.07	1.01	1.01	0.601	0.67	0.636	0.719	0.638	0.465	0.55	0.517	0.563	0.502	0.73	0.906	0.857	0.808	0.84
